Assay results: patent publication US20250263370A1 (Tay Therapeutics Limited, priority 2022, published 2025)
“And” between values parts separate entries of the source, which are not always exact repeats. Equal values may be shown once. “Also recorded” adds a separate entry of the source.

Tested on: collagen-induced arthritis
Experiment: Collagen-induced arthritis (CIA) model in rats: body weight, paw volume, clinical scores, clinical observations
Details: CIA rats
[1] = 10 mg/kg twice daily P.O. (group 6), day 21
[2] = 30 mg/kg twice daily P.O. (group 7)
[3] = 30 mg/kg twice daily P.O. (group 7), day 15
[4] = 30 mg/kg twice daily P.O. (group 7), day 19
[5] = 30 mg/kg twice daily P.O. (group 7), day 21

Compound: CNC(=O)c1[nH]c(C(=O)NC2CCC2)cc1O[C@@H](C)c1ccccc1 (stereo in doubt) [Example 101, N^5-cyclobutyl-N^2-methyl-3-(1-phenylethoxy)-1H-pyrrole-2,5-dicarboxamide]
- animals with a score of 2 on one hind limb and no score on the other hind limb [1]: 1/8
- animals with scores of 1 or 2 on both hind limbs [1]: 2/8
- animals with scores of 3 on each hind limb [1]: 3/8
- animals with scores of 4 on one or more hind limbs (10 mg/kg twice daily P.O. (group 6), days 19 and 21): 2/8
- paw volume increase at plateau relative to day 0 (10 mg/kg twice daily P.O. (group 6), plateau at day 18): approximately 50%
- Average animal paw volume percent change (10 mg/kg, Day 0, left hind paw (L)): 0.00%
- Animal paw volume Day 0 L (10 mg/kg, Day 0, left paw, individual animals): 1.39 mL and 1.26 mL (2×) and 1.29 mL (2×) and 1.31 mL and 1.30 mL and 1.37 mL
- Average animal paw volume percent change (10 mg/kg, Day 0, right hind paw (R)): 0.00%
- Animal paw volume Day 0 R (10 mg/kg, Day 0, right paw, individual animals): 1.41 mL and 1.26 mL (2×) and 1.30 mL (3×) and 1.31 mL and 1.37 mL
- Average animal paw volume percent change (10 mg/kg, Day 6, left hind paw (L)): 1.14%
- Animal paw volume Day 6 L (10 mg/kg, Day 6, left paw, individual animals): 1.41 mL and 1.23 mL and 1.31 mL and 1.33 mL and 1.34 mL and 1.35 mL and 1.37 mL and 1.26 mL
- Average animal paw volume percent change (10 mg/kg, Day 6, right hind paw (R)): 0.87%
- Animal paw volume Day 6 R (10 mg/kg, Day 6, right paw, individual animals): 1.41 mL and 1.24 mL and 1.32 mL and 1.33 mL and 1.34 mL (2×) and 1.36 mL and 1.26 mL
- Average animal paw volume percent change (10 mg/kg, Day 12, left hind paw (L)): 7.61%
- Animal paw volume Day 12 L (10 mg/kg, Day 12, left paw, individual animals): 1.52 mL and 1.26 mL and 1.43 mL and 1.63 mL and 1.34 mL and 1.44 mL and 1.39 mL and 1.27 mL
- Average animal paw volume percent change (10 mg/kg, Day 12, right hind paw (R)): 7.98%
- Animal paw volume Day 12 R (10 mg/kg, Day 12, right paw, individual animals): 1.44 mL and 1.27 mL and 1.88 mL and 1.33 mL and 1.35 mL and 1.38 mL and 1.39 mL and 1.29 mL
- Average animal paw volume percent change (10 mg/kg, Day 13, left hind paw (L)): 16.61%
- Animal paw volume Day 13 L (10 mg/kg, Day 13, left paw, individual animals): 1.71 mL and 1.32 mL and 1.81 mL and 1.83 mL and 1.35 mL and 1.45 mL and 1.44 mL and 1.31 mL
- Average animal paw volume percent change (10 mg/kg, Day 13, right hind paw (R)): 10.89%
- Animal paw volume Day 13 R (10 mg/kg, Day 13, right paw, individual animals): 1.54 mL and 1.32 mL and 1.90 mL and 1.37 mL (2×) and 1.41 mL and 1.44 mL and 1.29 mL
- Average animal paw volume percent change (10 mg/kg, Day 14, left hind paw (L)): 30.15%
- Animal paw volume Day 14 L (10 mg/kg, Day 14, left paw, individual animals): 2.00 mL and 1.50 mL and 2.07 mL and 2.45 mL and 1.39 mL and 1.45 mL and 1.44 mL and 1.31 mL
- Average animal paw volume percent change (10 mg/kg, Day 14, right hind paw (R)): 21.45%
- Animal paw volume Day 14 R (10 mg/kg, Day 14, right paw, individual animals): 1.62 mL and 1.68 mL and 2.23 mL and 1.67 mL and 1.37 mL and 1.43 mL and 1.46 mL and 1.28 mL
- Average animal paw volume percent change (10 mg/kg, Day 15, left hind paw (L)): 40.41%
- Animal paw volume Day 15 L (10 mg/kg, Day 15, left paw, individual animals): 2.13 mL and 1.73 mL and 2.33 mL and 2.49 mL and 1.41 mL and 1.60 mL and 1.49 mL and 1.51 mL
- Average animal paw volume percent change (10 mg/kg, Day 15, right hind paw (R)): 34.05%
- Animal paw volume Day 15 R (10 mg/kg, Day 15, right paw, individual animals): 1.93 mL and 1.83 mL and 2.53 mL and 1.91 mL and 1.38 mL and 1.45 mL and 1.51 mL and 1.52 mL
- Average animal paw volume percent change (10 mg/kg, Day 18, left hind paw (L)): 59.21%
- Animal paw volume Day 18 L (10 mg/kg, Day 18, left paw, individual animals): 2.40 mL and 2.04 mL and 2.54 mL and 2.70 mL and 1.51 mL (2×) and 2.30 mL and 1.64 mL
- Average animal paw volume percent change (10 mg/kg, Day 18, right hind paw (R)): 54.15%
- Animal paw volume Day 18 R (10 mg/kg, Day 18, right paw, individual animals): 2.23 mL and 2.08 mL and 2.52 mL and 2.74 mL and 1.59 mL and 1.91 mL and 1.58 mL and 1.51 mL
- Average animal paw volume percent change (10 mg/kg, Day 19, left hind paw (L)): 58.75%
- Animal paw volume Day 19 L (10 mg/kg, Day 19, left paw, individual animals): 2.38 mL and 2.04 mL and 2.49 mL and 2.64 mL and 1.48 mL and 2.32 mL and 1.65 mL and 1.60 mL
- Average animal paw volume percent change (10 mg/kg, Day 19, right hind paw (R)): 54.16%
- Animal paw volume Day 19 R (10 mg/kg, Day 19, right paw, individual animals): 2.36 mL and 2.05 mL and 2.47 mL and 2.71 mL and 1.58 mL and 1.87 mL and 1.57 mL and 1.56 mL
- Average animal paw volume percent change (10 mg/kg, Day 21, left hind paw (L)): 60.25%
- Animal paw volume Day 21 L (10 mg/kg, Day 21, left paw, individual animals): 2.38 mL and 2.03 mL and 2.48 mL and 2.64 mL and 1.48 mL and 2.33 mL and 1.83 mL and 1.60 mL
- Average animal paw volume percent change (10 mg/kg, Day 21, right hind paw (R)): 59.20%
- Animal paw volume Day 21 R (10 mg/kg, Day 21, right paw, individual animals): 2.35 mL and 2.04 mL and 2.46 mL and 2.68 mL and 1.58 mL and 2.15 mL and 1.82 mL and 1.62 mL
- animals that never showed signs of disease [2]: one animal
- average clinical score relative to CIA + vehicle (group 2) [2]: significantly decreased (p<0.01) relative to animals in group 2 on days 18, 19 and 21
- average overall clinical score at plateau [2]: 4
- day on which paw volume noticeably increased [2]: ~19 days
- effect on hind paw volume [2]: most effective dose at preventing an increase in paw volume; also recorded: Paw volume increases were delayed; also recorded: proved most effective
- paw volume increase at plateau relative to day 0 [2]: approximately 35%
- paw volume relative to CIA + vehicle (group 2) [2]: significantly reduced relative to group 2 at day 15 (left paw, p<0.05) and days 18, 19, 21 (both paws, p<0.01)
- animals exhibiting signs of disease (30 mg/kg twice daily P.O. (group 7), day 12): One animal
- animals exhibiting disease [3]: 4/8
- animals with a score of 2 on one hind limb [3]: 2/8
- animals exhibiting disease (30 mg/kg twice daily P.O. (group 7), day 16): 5/8
- animals with scores of 2 or 3 on both hind limbs (30 mg/kg twice daily P.O. (group 7), day 18): 3/8
- animals exhibiting disease [4]: 7/8
- animals with a score of 2 or 3 on both hind limbs [4]: 4/8
- animals with a clinical score of 3 on both hind limbs [5]: 4/8
- animals with a score of 1 on one or both hind limbs [5]: 3/8
- animals with no clinical score [5]: 1/8
- Average animal paw volume percent change (30 mg/kg, Day 0, left hind paw (L)): 0.00%
